Results from patent US20020160413A1, “COMBINATORIAL LIBRARIES” (priority 1998, published 2002).

Experiments:
Type in all cases: binding
oligo (dA•dT) = experiment: Affinity selection of amine/salicylaldehyde/Zn2+ library on DNA-cellulose resin, HPLC of derivatized amines in initial elution; conditions: 82 μM salicylaldehyde, 164 μM each amine
Procedure: For each sample, 15 mg oligo(dT) cellulose was weighed into a 2 ml Bio-Rad BIOSPIN™ polypropylene chromatography column equipped with a glass frit. The resin was then taken up in 750 μl HEPES buffer (10 mM HEPES, 100 mM KC1, pH 6.8). 0.5 A(260) units of oligo(dA) were then added in 50 μl H2O and allowed to incubate on the resin for one hour at ambient temperature prior to the addition of library samples. During this pre-incubation period, as well as throughout the remainder of the experiments, gentle agitation was provided by rotating the samples on a Barnstead-Thermolyne LAB QUAKE™ rotary shaker. In a similar manner, 15 mg of unfunctionalized cellulose for each control experiment was allowed to soak in 800 μl HEPES buffer at ambient temperature for one hour prior to the addition of library samples.
As one skilled in the are will note, the complexes shown above represent only a subset of the complexes that would be present in this equilibrium. Samples were prepared in triplicate from stock solutions as indicated in Table 1 to provide a total volume of 450 μl. An identical set of samples was prepared for control experiments. In each case, libraries were allowed to incubate at ambient temperature for one hour prior to addition to the DNA-cellulose or control cellulose resin. Additional sets of library samples were prepared according to lines C and D of Table 1 for control experiments conducted in the absence of DNA-cellulose or unfunctionalized cellulose resin.
Following the pre-incubation period, each sample was added to either a DNA-cellulose or unfunctionalized cellulose column as appropriate. These samples were then allowed to incubate on the resin with gentle agitation at ambient temperature for six hours. Solutions were then eluted from the resin, frozen, and lyophilized prior to derivatization and analysis as described below. […]
In order to separate and identify as many constituents of each sample as possible, a minimum of two HPLC elutions were performed for each sample. […] Elutions were monitored at 230 nm. […]

[1] = system: double-stranded oligo(dA)-oligo(dT); experiment: Affinity selection and amplification of salicylaldimine library on double-stranded DNA affinity column; conditions: for retention on the affinity column in the presence of zinc: 0.5 mM each of 8-13, with 26 MM ZnCl2, normalized to values in the absence of zinc, two-hour incubation
Source text: A serious potential problem with the selection and amplification of a single compound from an equilibrating mixture of complexes is that of identifying the desired high-affinity species. First, if the selection is not complete for a single compound, the separation and identification of a potentially large number of complexes presents a significant analytical challenge. Furthermore, since reequilibration of complexes can occur once the affinity resin is removed, it might be expected that binding information would be lost. […] Application of this technique to the eluent from an affinity column would permit deconvolution of the library to provide information about the identity of binding complexes.
With a series of monomers, verification of self-assembly in aqueous solutions, and a separation method in hand, the experimental tools were in place to conduct an affinity selection and amplification experiment. A standard solution of 0.5 mM 8-13 (total concentration 3 mM in “monomer”) was prepared in 10 mM Tris•HCl, 100 mM KCl, 1% DMSO, pH 7.5. To determine the effect of zinc on the observed selection, samples were prepared either with or without 26 MM ZnCl2. Samples were allowed to incubate for one hour to allow an equilibrium mixture of complexes to form, and the latter were then individually added to affinity columns prepared from 30 mg of commercial poly(dT)-cellulose resin (Pharmacia Biotech) preincubated with one A260 unit (approximately 7 nmol) of oligo (dA)12-18(Oligo (dA)12-18 as obtained from Pharmacia Biotech is a mixture of homopolymeric, single-stranded DNA of length 12 to 18) in 10 mM Tris•HCl, 100 mM KCl, pH 7.5 for formation of double-stranded DNA (giving an approximate, average complex:base pair ratio of 85:1). Following a two-hour incubation of the libraries on the resin, solutions were eluted, lyophilized, and derivatized as described above.

[2] = system: single-stranded oligo(dT)-cellulose; experiment: Control selection of salicylaldimine library on single-stranded oligo(dT)-cellulose; conditions: conditions identical to double-stranded experiment
[3] = Control selection of salicylaldimine library on cellulose alone; conditions: conditions identical to double-stranded experiment
[4] = 41 μM Zn2+, normalized to zinc-free samples

With `CN1CCCC1CCN` (stereo not drawn) [Amine 4, N-methyl 2-aminoethyl pyrrolidine] the “amount retained on the column at higher Zn2+ versus 41 μM Zn2+” value (oligo (dA•dT); 82 μM Zn2+) was “significant reduction in the amount of 4 retained” and the “reduction in the amount of derivatized amine in initial elution (in words)” value (oligo (dA•dT); [4]) was “significant reduction”.
In the case of `NCCCO` [Amine 6, 3-hydroxypropylamine], the “reduction in the amount of derivatized amine in initial elution” value (oligo (dA•dT); [4]) was over 50%.
For `CN1CCCC1CC/N=C/c1ccccc1O` (stereo not drawn) [monomer 9], the “retention on the affinity column in the presence of zinc” value [1] was “most strongly retained”, the “retention on oligo(dT)-cellulose, presence versus absence of zinc” value [2] was “to the same extent” and the “retention on cellulose, presence versus absence of zinc” value [3] was “to the same extent”.
In the case of `Oc1ccccc1/C=N/CC1CCCO1` (stereo not drawn) [monomer 11], the “retention on the affinity column in the presence of zinc” value [1] was “most strongly retained” and the “retention on cellulose, presence versus absence of zinc” value [3] was “more strongly retained”.
In the case of `Oc1ccccc1/C=N/CCc1ccccn1` [monomer 12], the “derivatized monomer eluted in the presence of zinc versus absence of zinc” value ([1]; 0.5 mM each of 8-13, with or without 26 MM ZnCl2) was “twice as much”.
